Experimental data as given in publication PMC2901852 (Chemical biology & drug design, 2009).
Like-named read-outs stand apart in the source and are kept apart here.

Tests used:
[1] = molecular target: catalytic domain of human recombinant MMP-3 (Homo sapiens, UniProt P08254); assay: Inhibition of MMP-3 catalytic domain, fluorogenic substrate hydrolysis; type: biochemical
[2] = molecular target: T1, catalytic domain of human recombinant MMP-1 (Homo sapiens, UniProt P03956); assay: Inhibition of MMP-1 catalytic domain, fluorogenic substrate hydrolysis; type: biochemical
T1 sequence (P03956 100-269 limits assumed): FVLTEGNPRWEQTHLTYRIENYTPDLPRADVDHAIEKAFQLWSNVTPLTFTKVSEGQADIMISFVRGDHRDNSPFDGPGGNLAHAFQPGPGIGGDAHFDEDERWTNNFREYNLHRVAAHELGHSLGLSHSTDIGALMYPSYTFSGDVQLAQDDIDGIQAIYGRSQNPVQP

[3] = molecular target: T2, Human recombinant active MMP-7 (Homo sapiens, UniProt P09237); assay: Inhibition of MMP-7, fluorogenic substrate hydrolysis; type: biochemical
T2 sequence (P09237 95-267): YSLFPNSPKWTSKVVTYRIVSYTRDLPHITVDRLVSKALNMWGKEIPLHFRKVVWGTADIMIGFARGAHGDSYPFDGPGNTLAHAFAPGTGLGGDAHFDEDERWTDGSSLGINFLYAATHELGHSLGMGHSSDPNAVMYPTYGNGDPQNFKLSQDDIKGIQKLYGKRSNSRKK

Human recombinant MMP-9 = Human recombinant MMP-9 (Homo sapiens, UniProt P14780); assay: Inhibition of MMP-9, fluorogenic substrate hydrolysis; type: biochemical
Chain of Human recombinant MMP-9 (P14780 94-707): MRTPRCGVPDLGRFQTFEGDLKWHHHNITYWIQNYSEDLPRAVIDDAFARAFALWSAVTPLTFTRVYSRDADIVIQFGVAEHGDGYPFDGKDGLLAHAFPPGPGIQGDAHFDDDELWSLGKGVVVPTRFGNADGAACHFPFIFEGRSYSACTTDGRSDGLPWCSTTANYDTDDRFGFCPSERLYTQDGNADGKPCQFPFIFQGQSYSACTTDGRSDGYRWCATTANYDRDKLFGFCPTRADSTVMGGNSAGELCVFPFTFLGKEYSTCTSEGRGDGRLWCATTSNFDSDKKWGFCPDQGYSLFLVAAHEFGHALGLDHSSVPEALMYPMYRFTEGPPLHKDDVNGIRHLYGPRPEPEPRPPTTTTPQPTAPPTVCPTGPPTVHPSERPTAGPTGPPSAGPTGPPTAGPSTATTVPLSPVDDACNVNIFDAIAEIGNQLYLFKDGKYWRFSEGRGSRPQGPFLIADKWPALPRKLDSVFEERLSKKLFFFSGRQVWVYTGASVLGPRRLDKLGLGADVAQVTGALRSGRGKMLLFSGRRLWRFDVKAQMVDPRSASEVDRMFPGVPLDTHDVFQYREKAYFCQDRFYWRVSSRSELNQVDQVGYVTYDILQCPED

[4] = molecular target: catalytic domain of human recombinant MMP-14 (MT1-MMP) (Homo sapiens, UniProt P50281); assay: Inhibition of MMP-14 catalytic domain, fluorogenic substrate hydrolysis; type: biochemical
Human recombinant MMP-2 = molecular target: T3, Human recombinant MMP-2 (Homo sapiens, UniProt P08253); assay: Inhibition of MMP-2, fluorogenic substrate hydrolysis; type: biochemical
T3 sequence (P08253 110-660): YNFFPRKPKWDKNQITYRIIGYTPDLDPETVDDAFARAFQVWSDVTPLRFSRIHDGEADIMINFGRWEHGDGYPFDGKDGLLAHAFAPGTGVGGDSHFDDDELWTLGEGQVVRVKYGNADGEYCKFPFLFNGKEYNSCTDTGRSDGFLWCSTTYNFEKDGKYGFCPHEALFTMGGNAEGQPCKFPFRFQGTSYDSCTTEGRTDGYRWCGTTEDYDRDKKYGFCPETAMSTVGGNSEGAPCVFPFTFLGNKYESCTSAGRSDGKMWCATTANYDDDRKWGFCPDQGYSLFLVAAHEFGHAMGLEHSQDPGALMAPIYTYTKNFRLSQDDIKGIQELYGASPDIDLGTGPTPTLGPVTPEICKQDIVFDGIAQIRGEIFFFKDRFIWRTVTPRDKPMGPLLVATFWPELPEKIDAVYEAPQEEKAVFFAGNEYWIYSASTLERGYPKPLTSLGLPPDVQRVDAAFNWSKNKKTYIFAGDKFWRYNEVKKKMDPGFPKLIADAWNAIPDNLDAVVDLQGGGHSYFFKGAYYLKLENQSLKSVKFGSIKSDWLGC

[5] = 15-min incubation with rat liver microsomes; cited from earlier work
[6] = In vitro metabolism, incubation with rat liver microsomes; type: in vitro ADME; details: more metabolically stable than SB-3CT

Chain of catalytic domain of human recombinant MMP-3 (P08254 100-272 limits assumed): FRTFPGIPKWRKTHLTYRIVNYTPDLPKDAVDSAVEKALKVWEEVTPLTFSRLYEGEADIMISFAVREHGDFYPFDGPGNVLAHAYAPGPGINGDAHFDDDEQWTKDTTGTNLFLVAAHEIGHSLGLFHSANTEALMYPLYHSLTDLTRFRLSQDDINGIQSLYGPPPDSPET

CC(C1CS1)S(=O)(=O)c1ccc(Oc2ccc(O)cc2)cc1 (centres unmarked) [Compound 13b]
inhibition in words ([1]; MMP-3, inhibitor concentrations up to 60 μM): Marginal to no inhibition | inhibition in words ([2]; MMP-1, inhibitor concentrations up to 60 μM): Marginal to no inhibition | inhibition in words ([3]; MMP-7, inhibitor concentrations up to 60 μM): Marginal to no inhibition | Ki (Human recombinant MMP-9; MMP-9): 1.9 ± 0.7 µM | Ki ([4]; MMP-14cat): 2100 ± 700 nM | Ki (Human recombinant MMP-2; MMP-2): 220 ± 90 nM

C[C@@H]([C@H]1C[S+]1[O-])S(=O)(=O)c1ccc(Oc2ccccc2)cc1 (stereo partly drawn) [Compound 12, (2R)-2-(1S-(4-Phenoxyphenylsulfonyl)ethyl)thiirane S-oxide]
inhibition at a fixed 60 μM inhibitor concentration (Human recombinant MMP-9; MMP-9, 60 μM): 30% | inhibition at a fixed 60 μM inhibitor concentration ([4]; MMP-14, 60 μM): 0% | Ki (Human recombinant MMP-2; MMP-2): 20000 nM

O=S(=O)(CC1CS1)c1ccc(Oc2ccccc2)cc1 (centres unmarked) [Compound 1, 2-(4-phenoxyphenylsulfonylmethyl)thiirane]
compound remaining [5]: 0.5%

C[C@H]([C@H]1CS1)S(=O)(=O)c1ccc(Oc2ccccc2)cc1 [Compound 5c, (2R)-2-(1R-(4-Phenoxyphenylsulfonyl)ethyl)thiirane]
Ki (Human recombinant MMP-2): 4100 ± 100 nM

C[C@@H]([C@H]1CS1)S(=O)(=O)c1ccc(Oc2ccccc2)cc1 [Compound 5b, (2R)-2-(1S-(4-Phenoxyphenylsulfonyl)ethyl)thiirane]
inhibition at 60 µM ([1]; MMP-3cat, 60 μM inhibitor): 8% Inhibition at 60 μM | Ki ([2]; read-out: Inhibition (Ki column), MMP-1cat, up to 60 μM): > 60 µM | Ki ([3]; read-out: Inhibition (Ki column), MMP-7, up to 60 μM): > 60 µM | Metabolic stability relative to SB-3CT [6]: > 50 fold | Ki (Human recombinant MMP-9; MMP-9): 3.5 ± 0.2 µM | 10^4 koff (Human recombinant MMP-9; MMP-9, values printed as 10^4 koff): 9.0 ± 0.6 second | 10^–3 kon (Human recombinant MMP-9; MMP-9, values printed as 10^–3 kon): 0.26 ± 0.01 M/second | Ki ([4]; MMP-14cat): 740 ± 170 nM | 10^4 koff ([4]; MMP-14cat, values printed as 10^4 koff): 8.9 ± 2.1 second | 10^–3 kon ([4]; MMP-14cat, values printed as 10^–3 kon): 1.2 ± 0.1 M/second | Ki (Human recombinant MMP-2; MMP-2): 180 ± 30 nM | 10^–3 kon (Human recombinant MMP-2; MMP-2, slow-binding onset rate constant, values printed as 10^–3 kon): 3.3 ± 0.1 M/second | 10^4 koff (Human recombinant MMP-2; MMP-2, values printed as 10^4 koff): 5.9 ± 1.0 second

C[C@H]([C@@H]1CS1)S(=O)(=O)c1ccc(Oc2ccccc2)cc1 [Compound 5d, (2S)-2-(1R-(4-Phenoxyphenylsulfonyl)ethyl)thiirane]
inhibition at 60 µM ([1]; read-out: Inhibition at 60 μM): 9% | Ki [2]: > 60 µM | Ki [3]: > 60 µM | Metabolic stability relative to SB-3CT [6]: > 50 fold | Ki (Human recombinant MMP-9): 3.3 ± 0.2 µM | koff (Human recombinant MMP-9; read-out: 10^4 koff): 0.00072 ± 4e-05 s⁻¹ | kon (Human recombinant MMP-9; read-out: 10^–3 kon): 220 ± 10 M⁻¹ s⁻¹ | Ki [4]: 2100 ± 200 nM | koff ([4]; read-out: 10^4 koff): 0.00095 ± 9e-05 s⁻¹ | kon ([4]; read-out: 10^–3 kon): 460 ± 10 M⁻¹ s⁻¹ | Ki (Human recombinant MMP-2): 390 ± 30 nM | koff (Human recombinant MMP-2; read-out: 10^4 koff): 0.00081 ± 6e-05 s⁻¹ | kon (Human recombinant MMP-2; read-out: 10^–3 kon): 2100 ± 100 M⁻¹ s⁻¹

C[C@@H]([C@@H]1CS1)S(=O)(=O)c1ccc(Oc2ccccc2)cc1 [Compound 5a, (2S)-2-(1S-(4-Phenoxyphenylsulfonyl)ethyl)thiirane]
Ki (Human recombinant MMP-2; MMP-2, linear competitive inhibitors): 7200 ± 100 nM
